Tests used:
PPARγ [1] = tested on: T1, PPARγ; test: Lipid-protein pull down assay, dorsal striatum lysate; format: binding; conditions: GlcCer-beads, dorsal striatum of mice
T1 construct: from tissue; host or cells: mouse dorsal striatum
Procedure: Dorsal striatal tissues were cut into small pieces and then centrifuged at 13,000 g for 15 min at 4 °C. Supernatants were collected, and protein concentrations were determined using BCA assay. GlcCer-beads were equilibrated by washing them three times with ice-cold PBS. The clarified cell lysate was added to the equilibrated beads, then the mixture was incubated on a rotator at 4 °C for overnight, use approximately 500 µg of total protein per reaction. After incubation, the beads were washed three times with ice-cold PBS. Following the final wash, the beads were resuspended in SDS-PAGE sample buffer and heat at 95°C for 5 min to elute the bound proteins. The eluted sample was used to western blotting analysis.

PPARγ [2] = tested on: T2, PPARγ; test: PPARγ transcription activity assay (PPRE binding), N2a cells; format: cell-based
T2 construct: endogenous in cells; host or cells: N2a cells (nuclear extract)
Procedure: (§1) Nuclear extracts were prepared from N2a cells using a nuclear extraction kit according to the manufacturer protocol. The binding reaction between PPARγ and PPRE was carried out at 4°C for 16 h using 3 μg of nuclear extracts. The binding activity between PPARγ and PPRE was indicated by the change of optical density (OD) at 405 nm, and an enzyme reaction was measured by HRP-conjugated antibody in complex of PPRE/ PPARγ/antibody.

PPARγ [3] = test: PPRE-luciferase (dual-luciferase) activity assay in N2a cells; format: cell-based; conditions: N2a cells transfected with wild-type Pparg
Procedure: N2a cells were seeded into 24-well plates and cultured for 24 hours before transfection. A DNA mixture containing the PPRE-luciferase reporter plasmid (0.5 μg), PPARγ/ PPARγ mutation plasmid (0.5 μg) and an internal control plasmid pRL-SV-40 (25 ng) was transfected using lipofectamine 3000 transfection reagent (L3000001, Invitrogen, USA) according to the manufacturer's recommendations. After transfection, the cells were incubated for an additional 48 h.

PPARγ target genes = test: qRT-PCR of PPARγ target genes in PPARγ-overexpressing N2a cells; format: cell-based; conditions: 0.1, 1 and 10 μM
CRS-induced mice = test: Behavioral tests (OFT, EPMT, LDT, SPT, FST) in chronic restraint stress mice, intra-dorsal striatal infusion; format: in vivo
Procedure: For intracranial injection, mice were surgically implanted with sterilized guide cannulae in dorsal striatum. […] Mice were intraperitoneally injected with CNO (1 mg/kg/d) before behavioral test.
Chronic restraint stress (CRS). For the CRS protocol, male C57BL/6J mice (8-10 weeks old) were obtained from Charles River Laboratories (Beijing, China). Mice were individually placed into well-ventilated 50 mL conical restraint tube (suitable for mice weighing 20-25 g) with multiple holes for 4 h daily between 10:00 AM and 2:00 PM to minimize circadian rhythm variations. The restraint stress procedure was conducted for 14 consecutive days. Then, all behavioral test were performed between 10:00 AM and 18:00 PM.
(§2) Elevated plus maze test (EPMT).
(§3) Light-dark Transition test (LDT).
(§4) Sucrose preference test (SPT).
(§5) Forced swimming test (FST).

PPARγ [4] = tested on: T1, PPARγ; test: PPARγ mRNA, protein and transcriptional activity in dorsal striatum of CRS-induced mice; format: in vivo; conditions: intra-dorsal striatum pioglitazone, GlcCer or combination
Description: Dorsal striatal tissues were processed in accordance with the RNA isolation kit's instructions (RC102/RC112; Vazyme Biotech Co.,Ltd), mRNA was reverse transcribed using HiScript® III All-in-one RT SuperMix (Vazyme Biotech Co.,Ltd), and cDNA was amplified using SYBR Green (Vazyme Biotech Co.,Ltd). The 2^-ΔΔCt method was used to analyze gene expression, and the relative level of the target gene was normalized to Gapdh. The primer sequences can be found in Supplemental materials Table S1.
Brain tissues were cut into small pieces and then centrifuged at 13,000 g for 15 min at 4 °C. Supernatants were collected, and proteins concentrations were determined by BCA assay. Samples were denatured at 95 °C for 5 min and subsequently stored at -80 °C for further use. Protein samples were loaded onto 10% SDS-PAGE and transferred on PVDF membranes. After being blocked with 5% nonfat dry milk in Tris-buffered saline with 0.1% Tween-20 for 1.5 h, the PVDF membranes were incubated with corresponding primary antibodies overnight at 4 °C. Membranes were then incubated with HRP-conjugated secondary antibodies for 1 h at room temperature and measured with chemiluminescence imaging system (ChemiScope; Clinx, China).
as §1

D2-Pparg^f/f mice = test: Behavioral tests in D2-Pparg f/f mice after intra-dorsal striatal microinfusion; format: in vivo; conditions: microinfusion of GlcCer
Procedure: For intracranial injection, mice were surgically implanted with sterilized guide cannulae in dorsal striatum. Intra-dorsal striatal injection of PDMP (100 μM, 1 μL/injection), pioglitazone (100 μM, 1 μL/injection), UNC (10 μM, 1 μL/injection) was performed 30 min before behavioral test. Mice were intraperitoneally injected with CNO (1 mg/kg/d) before behavioral test.
as §2, §3, §4, §5

human PPARγ-LBD = test: Surface plasmon resonance, PPARγ LBD; conditions: Figure S7B, C
Procedure: Prepared human PPARγ-LBD and human PPARγ-full length (Active Motif, USA) were immobilized onto a CM5 sensor chip using amine coupling. Briefly, the protein was diluted to 50 μg/mL in immobilization buffer and covalently attached to the CM5 chip via an Amine Coupling Kit (Cytiva, USA), following the manufacturer's instructions. A channel without immobilized protein was used as a blank control. […] Gradient concentrations of GlcCer were injected over both channels at a flow rate of 30 μL/min, with an association time and dissociation time of 85 s each.

[5] = CRS mice, pioglitazone 1 μM, GlcCer 200 μM, 1 μL/side, or combination

Substance: Glucosylceramide [GlcCer]
- interaction between PPARγ and GlcCer (lipid-protein binding assay) (PPARγ [1]): direct interaction
- PPARγ transcriptional (DNA binding) activity in N2a cells (PPARγ [2]; Figure 5H, GlcCer, pioglitazone or combination): increased PPARγ transcriptional activity in a dose-dependent manner
- PPARγ transcriptional activity, nuclear extracts from N2a cells (PPARγ [2]; pioglitazone (100 nM), GlcCer (10 μM), or their combination, Figure S7F): significantly increased
- PPARγ activity (dual-luciferase) (PPARγ [3]): increased
- expression of Adipoq and Leptin (PPARγ target genes): robustly upregulated
- expression of adipogenesis-related genes (Srebp-1c, Adrp, Fabp4, Fasn, Cd36) (PPARγ target genes): little or no effect
- time spent in the center area (OFT) (CRS-induced mice; CRS mice vs vehicle, pioglitazone 1 μM, GlcCer 200 μM, 1 μL/side, or combination): significant increase
- stress-induced depression-like behaviors (overall) (CRS-induced mice; CRS mice, administration of GlcCer, pioglitazone or combined): reverses
- immobility duration in the FST (CRS-induced mice; [5]): decreased
- sucrose preference in the SPT (CRS-induced mice; [5]): increased
- PPARγ activity in the dorsal striatum (PPARγ [4]): significantly enhanced
- PPARγ mRNA or protein expression (PPARγ [4]): neither pioglitazone, GlcCer, nor their combination altered
- depression-like behaviors (D2-Pparg^f/f mice): failed to alleviate
- binding affinity for the LBD (SPR) (human PPARγ-LBD): minimal binding affinity

Reference: paper PMC12775823, “Glucosylceramide regulates depression through activating peroxisome proliferator-activated receptor gamma in dorsal striatum” (Theranostics, 2026)
